In patent publication US9686993B2 (priority 2005, dated 2017):
Read-outs that look alike come from different tables or passages of the source.

What was measured:
[1] = system: wheat scab (Fusarium graminearum, Fusarium culmorum, or Fusarium avenaceum); format: in vivo; settings: for Medicinal Benefit Control Value: relative to no treatment; for Medicinal Benefit (number of infected berries in 1000 berries): sprayed once at GSs 65 to 71, no treatment 203
[2] = system: Fusarium graminearum, Fusarium culmorum, or Fusarium avenaceum (mycotoxin production, DON); settings: in vivo

SMILES: COC(=O)NC(=S)Nc1ccccc1NC(=S)NC(=O)OC [Cercobin M, thiophanate-methyl]
- Medicinal Benefit Control Value ([1]; 250 g ai/ha): 6.4%
- Medicinal Benefit (number of infected berries in 1000 berries) ([1]; 250 g ai/ha): 190
- medicinal benefit (number of infected berries in 1000 berries), result in words ([1]; 250 to 500 g ai/ha (combination 500 + 120 g ai/ha), versus no treatment): almost no difference
- Medicinal Benefit Control Value ([1]; 375 g ai/ha): 7.4%
- Medicinal Benefit (number of infected berries in 1000 berries) ([1]; 375 g ai/ha): 218
- Medicinal Benefit Control Value ([1]; 500 g ai/ha): 11.3%
- Medicinal Benefit (number of infected berries in 1000 berries) ([1]; 500 g ai/ha): 180
- amount of mycotoxin production (DON concentration), result in words [2]: inhibited in a dose-dependent manner
